This is an account of results in PubChem BioAssay (NCI).

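All cell lines were grown in 96-well plates and treated with compound for 48 hours. Definition used: TGI = concentration required for complete inhibition of growth.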

This experiment has as its system XF 498 CNS. Kind of experiment: DTP human tumour cell line panel, 48 h.

Turning to `NC(=S)N/N=C1\CC(c2ccccc2)Nc2ccccc21` (configuration not stated), the TGI is 35.2 µM.

`CC(=O)C(N=NC1CCC(S(=O)(=O)NB2N=CS2)CC1)C(=O)Nc1ccccc1C` (configuration not stated) showed a TGI of 33.6 µM.

A word on the TGI: it is the concentration giving total growth inhibition. Low values mean more potent growth arrest, high ones less potent growth arrest.
